Article PMC9038795, “Deletion and tandem duplications of biosynthetic genes drive the diversity of triterpenoids in Aralia elata” (Nature Communications, 2022)

Columns and labels:
Assay in all cases: HPLC-MS kinetic assay
Type in all cases: biochemical, Aralia elata
Conditions in all cases: 0.5 mM UDP-Glc, 50 mM Tris-HCl pH 7.0, 30 °C, 1 µM enzyme
AeUGT74AG6 = system: T1, AeUGT74AG6
T1 construct: pGEX-4T-1, GST-tagged, E. coli BL21 (DE3), GSTrap purified

AeUGT73CB3 = system: T2, AeUGT73CB3
T2 construct: pGEX-4T-1, GST-tagged, E. coli BL21 (DE3), GSTrap purified; methods print AeUGT74CB3
Method: HPLC-MS kinetic assay on AeUGT73CB3 | The kinetic parameters of AeUGT73CB3 for calenduloside E and chikusetsusaponin IVa as substrates were analyzed.

AeUGT73AD2 = system: T3, AeUGT73AD2
T3 construct: pGEX-4T-1, GST-tagged, E. coli BL21 (DE3), GSTrap purified

Km (AeUGT74AG6)	Km (AeUGT73CB3)	Km (AeUGT73AD2)	SMILES
48.8 ± 3.04 µM			CC1(C)CC[C@]2(C(=O)O)CC[C@]3(C)C(=CC[C@@H]4[C@@]5(C)CC[C@H](O[C@@H]6O[C@H](C(=O)O)[C@@H](O)[C@H](O)[C@H]6O[C@@H]6O[C@H](CO)[C@@H](O)[C@H](O)[C@H]6O)C(C)(C)[C@@H]5CC[C@]43C)[C@@H]2C1 [compound 8, zingibroside R1]
	640.2 ± 4.6 µM		CC1(C)CC[C@]2(C(=O)O[C@@H]3O[C@H](CO)[C@@H](O)[C@H](O)[C@H]3O)CC[C@]3(C)C(=CC[C@@H]4[C@@]5(C)CC[C@H](O[C@@H]6O[C@H](C(=O)O)[C@@H](O)[C@H](O)[C@H]6O)C(C)(C)[C@@H]5CC[C@]43C)[C@@H]2C1 [compound 9, chikusetsusaponin IVa]
150 ± 7.7 µM	51.8 ± 2.1 µM		CC1(C)CC[C@]2(C(=O)O)CC[C@]3(C)C(=CC[C@@H]4[C@@]5(C)CC[C@H](O[C@@H]6O[C@H](C(=O)O)[C@@H](O)[C@H](O)[C@H]6O)C(C)(C)[C@@H]5CC[C@]43C)[C@@H]2C1 [compound 7, calenduloside E]
40.3 ± 2.49 µM		43 ± 9.17 µM	CC1(C)CC[C@]2(C(=O)O)CC[C@]3(C)C(=CC[C@@H]4[C@@]5(C)CC[C@H](O)C(C)(C)[C@@H]5CC[C@]43C)[C@@H]2C1 [compound 2, oleanolic acid]
